Source: US10555910B2, “Oligonucleotide lipid nanoparticle compositions, methods of making and methods of using the same” (Ohio State Innovation Foundation, priority 2014, dated 2020)

Assays:
A549 cells [1] = assay type: cell-based, human; set-up: decrease of cell viability: dose or concentration left out as unconfirmed
Procedure: Cells were grown in 96-well plates at a density of 2.0 ×10^4 cells/well. Cells were treated with controls or QT/AM-21 at 50, 100, or 200 nM, with and without PTX (4.1 nM) dissolved in a small volume of 1:1 Cremophor EL:ethanol solution. Relative cell viability was quantified by CellTiter 96® AQueous One Solution Cell Proliferation Assay (Promega, Madison, Wis., USA) according to the manufacturer's protocol 72 h following the start of treatment. Briefly, 20 μL MTS assay solution was added to each well and the plates were incubated for 1 h. The absorbance at 490 nm was recorded to determine cytotoxicity relative to the untreated control.
A549 cells were cultured as in Example 2, and treated with either QT/AM-21 (5′-U*C*A*ACAUCAGUCUGAUAAG*C*U*A-3′, SEQ ID NO:3) at three different concentrations (50 nM, 100 nM or 200 nM), paclitaxel (PTX) or a combination of PTX and QT/AM-21 (PTX/50 nM QT/AM-21; PTX/QT/100 nM-21; TX/200 nM QT/AM-21). (Dosage of PXT was 4nM).
The cells were incubated with the drugs for 72 h; after which the cells were harvested and tested for cytotoxicity and viability using MTS assay kit by Promega. Absorbance scanning was done at 490 nm to determine relative cell viabilities.

miR-21 [2] = assay: In vivo gene regulation in A549 xenograft tumors (qRT-PCR); set-up: species or system mice; details: 1 mg/kg QT/AM-21 and/or 3 mg/kg PTX
Procedure: (§1) Female athymic nude mice (n=5 per group) were implanted with 1.0×10^6 A549 cells/mouse and treatment began when tumors reached a size of ≥100 mm^3. Mice were treated by tail vein injection with saline control or 1 mg/kg QT/AM-21. Mice receiving PTX treatment as monotherapy or combination therapy received PTX dissolved in 1:1 Cremephor EL:ethanol solution at a dose of 3 mg/kg via intraperitoneal injection. Mice were dosed on days 1, 3, 5, 8, 15, 22, 29 and were monitored over a 4 week period. 48 h following the last dose, mice were euthanized and tumors were collected for gene regulation study.
Tumors were harvested and placed in TRIzol reagent (Life Technologies) following treatment and homogenized. mRNA was isolated per the manufacturer's protocol. qRT-PCR was then completed according to the same procedure as outlined in the in vitro section.

A549 xenograft = assay: Combination therapy (QT/AM-21 and PTX) in A549 xenograft; assay type: in vivo, mice; details: 1 mg/kg QT/AM-21 tail vein and/or 3 mg/kg PTX i.p., start ~80 mm^3, 4 weeks
Procedure: as §1, with “Mice” for “Female athymic nude mice (n=5 per group) were implanted with 1.0×10^6 A549 cells/mouse and treatment began when tumors reached a size of ≥100 mm^3. Mice”

A549 cells [3] = assay: Migration assay (scratch wound healing); assay type: cell-based, human; details: A549, QT lipids or AM-21 (200 nM) alone, 48 h
Procedure: A wound healing model was conducted to examine the migratory ability of A549 cells following treatment. A549 cells were plated at a density of 6.0×10^5 cells/well in a 33 mm petri dish 24 h prior to transfection. A scratch wound across the dish was made using a 10 μL pipet tip immediately before treatment. Culture media was removed and replaced with transfection media containing QT/AM-21 or appropriate controls diluted in complete media. Cells were allowed to proliferate at 37° C. for 48 h. Distances between edges of the wound were measured on a Nikon E800 microscope (Nikon, Tokyo, Japan) and SPOT Advanced Imaging Software (v5.0, Diagnostic Instruments Inc., Sterling Heights, Mich., USA).
A549 cells were cultured following standard culture procedure and incubated with QT/AM-21 (5′-U*C*A*ACAUCAGUCUGAUAAG*C*U*A-3′, SEQ ID NO:3) at three different concentrations (50 nM, 100 nM and 200 nM), or free, unformulated AM-21 (200 nM) for 48 hours. The untreated cells and cells treated with empty “QTsome™” lipid nanoparticle formulation were used as control. The migration of tumor cells was determined.

miR-21 [4] = assay: In vitro gene regulation in A549 cells (qRT-PCR of miR-21 and its target genes); assay type: cell-based, human; details: 100 nM AM-21, mRNA relative to GAPDH
Procedure: Cells were grown in 24-well plates at a density of 7.0×10^5 cells/well 24 h prior to transfection. QT/AM-21 of varying lipid composition or QT/negative control (NC) were administered at 50 nM in the presence of 20% serum containing media to determine the optimal QT composition. […] Cells were incubated at 37° C. with transfection media for 4 h and then washed three times with PBS. Fresh complete cell culture media was added and the cells were incubated at 37° C. for an additional 44 h. RNA was isolated from cells by RNeasy 96 kit (Qiagen, Valencia, Calif., USA). qRT-PCR was conducted with Taqman® MicroRNA Assay (Life Technologies) or EXPRESS One-Step Superscript® qRT-PCR kit (Life Technologies) on an Applied Biosystems StepOnePlus™ RT-PCR system (Life Technologies). The relative amount of […] was calculated and compared according to the 2^−ΔΔCt method.
Lung cancer A549 cells (human lung adenocarcinoma epithelial cell line) were cultured in vitro as standard cell culture. Cells were cultured in RPMI 1640 media supplemented with 10% FBS and 1% antibiotics/antimycotics in a 5% CO2 atmosphere at 37° C. […]
RNA was extracted by TRIzol reagent per manufacturer's protocol. cDNA was generated by Maxima First Strand cDNA synthesis kit per manufacture's protocol. […] RECK and PTEN mRNA levels were measured relative to GAPDH.

A549 cells [5] = assay: Matrigel invasion assay; assay type: cell-based, human; details: A549, QT lipids or AM-21 alone, 48 h
Procedure: Matrigel (BD Biosciences, San Jose, Calif., USA) was combined with serum-free RPMI 1640 culture media in a 1:1 ratio. 70 μL of gel was added to each well insert of a 24-well plate. The gel was allowed to set for 1 h at 37° C. A549 cells were seeded at […] in a volume of 100 μL/well on top of the gel in the insert. Transfection media containing various formulations or controls at 2×concentration in a 100 μL volume were added to the top of the well inserts. 500 μL 10% fetal bovine supplemented media was added as a chemoattractant below the transwell insert. The plate was incubated at 37° C. for 48 h. Following the incubation period, cells remaining in the top of the well inserts were removed with a cotton swab. Well inserts were rinsed with PBS and placed in 500 uL 0.25% trypsin solution for 1 h at 37° C. Detached cells were counted on a hemocytometer.
A matrigel invasion assay was also performed after 48 hour treatment, as follows: Chilled Matrigel was combined with chilled serum-free RPMI 1640 culture media in a 1:1 ratio. 70 uL of gel was added to each well insert of a 24-well plate. The gel was allowed to set for 1 hour at 37° C. A549 cells were seeded at 75,000 cells/well in a volume of 100 uL/well on top of the gel. […] Detached cells were counted on a hemocytometer.

Molecule	cells still alive compared to untreated control (A549 cells [1]; A549, PTX alone (4 nM), 72 h, MTS) [%]	decrease of cell viability (A549 cells [1]; human, 72 h) [%]	upregulation of DDAH1 and PTEN in tumors (miR-21 [2])	DDAH1 upregulation in tumors (miR-21 [2]; 48 h after last dose) [fold]	PTEN upregulation in tumors (miR-21 [2]; 48 h after last dose) [fold]	tumor volume at end of study (A549 xenograft) [mm^3]	cell migration in the wound region (A549 cells [3])	change of cell viability on addition to PTX (A549 cells [1]; A549, free AM-21 or QT lipids added to PTX, MTS)	expression of RECK compared to untreated control A549 cells (miR-21 [4])	cell invasion (A549 cells [5])
CC(=O)O[C@H]1C(=O)[C@@]2(C)[C@H]([C@H](OC(=O)c3ccccc3)[C@]3(O)C[C@H](OC(=O)[C@H](O)[C@@H](NC(=O)c4ccccc4)c4ccccc4)C(C)=C1C3(C)C)[C@]1(OC(C)=O)CO[C@@H]1C[C@@H]2O [PTX, Paclitaxel]	~65	40	moderate upregulation	1.7	1.5	246.4				
u*c*a*acaucagucugauaag*c*u*a (UCAACAUCAGUCUGAUAAGCUA; linkages s3 o15 s3 (s phosphorothioate, o phosphodiester), sugars by position and methylation of C not given here; further chemistry not fully specified) [AM-21]							did not confer significant decreases in cell migration	did not result in significant decreases in cell viability	upregulated	did not significantly retard cell invasion
